Source: patent US20120315254A1, “METHODS AND COMPOSITIONS FOR ENHANCING FAT GRAFT SURVIVAL” (Sebana Medical Ltd., priority 2010, published 2012)

Assays:
[1] = test system: VEGF; experiment: Plasma VEGF concentration and fat graft VEGF content (ELISA); assay type: in vivo, CD-1 nude mice; settings: VEGF-treated (200 ng/100 μl PBS) vs PBS-treated fat grafts; week 15
Protocol: (§1) The first study comprised 30 seven-week-old female CD-1 nude mice (Harlan, Jerusalem, Israel). These mice were housed in cages in a room with an artificial 12-h light/dark cycle at a constant temperature range (24±2° C.) and relative humidity (55±10%). The mice were acclimated for one week prior to the study, and fed a standard laboratory chow and water ad libitum. The 30 mice were randomly divided into three equal groups and treated as follows: Group 1 mice were injected with 1 ml of human fat and were treated with sterile PBS (control group). Group 2 mice were injected with 1 ml human fat and were treated with 1000 IU/kg EPO (low-dose EPO group). […]
The duration of the study period of both experiments was 15 weeks from the start of fat transplantation. […] VEGF and EPO concentrations were determined in homogenates of samples of the fat grafts using commercial enzyme-linked immunosorbent assays (Quantikine® VEGF immunoassay Kit and Quantikine® WD® Erythropoietin Kit, R&D Systems, MN, USA) in accordance with the manufacturer's instructions.
(§2) After 15 weeks, all mice were humanely killed and the fat grafts were carefully dissected from their scalps (FIG. 1C). Each fat graft was weighed and the volume of the fat graft was measured by the liquid overflow method as previously described [Ayhan et al. (2001) Aesthetic Plast Surg 25:338-342]. […]

[2] = test system: human fat grafts; experiment: Histological analysis of the dissected fat grafts (grades 0 to 5); assay type: in vivo, CD-1 nude mice; settings: grade on a scale of 0 to 5; VEGF 200 ng/100 μl PBS; week 15
Protocol: The first study comprised 30 seven-week-old female CD-1 nude mice (Harlan, Jerusalem, Israel). These mice were housed in cages in a room with an artificial 12-h light/dark cycle at a constant temperature range (24±2° C.) and relative humidity (55±10%). The mice were acclimated for one week prior to the study, and fed a standard laboratory chow and water ad libitum. The 30 mice were randomly divided into three equal groups and treated as follows: Group 1 mice were injected with 1 ml of human fat and were treated with sterile PBS (control group). Group 2 mice were injected with 1 ml human fat and were treated with 1000 IU/kg EPO (low-dose EPO group). Group 3 mice were injected with 1 ml human fat and were treated with 5000 IU/kg EPO (high-dose EPO group). The fat was injected subcutaneously into the scalp using a 14G needle while the animals were manually restrained. Immediately following fat transplantation, the PBS-treated fat grafts were injected with 100 μl PBS (control group), and the EPO-treated fat grafts were injected with either 20 IU EPO/100 μl PBS (low-dose EPO group) or 100 IU EPO/100 μl PBS (high-dose EPO group) every three days for 18 days (a total of 6 injections). EPO was purchased as an injection ampoule (ARANESP®, Amgen AG, Zug, Switzerland) which contained 150 μg/ml (18,000 IU) of EPO.
The second animal study comprised 20 seven-week-old female CD-1 nude mice, and differed from the first study in that the fat was treated with VEGF (2 μg/ml, Sigma Aldrich, Mo., USA) following implantation. 10 mice were injected with fat followed by 200 ng VEGF/100 μl PBS injections every three days for a total of 18 days. The remaining 10 mice made up a second control group that was treated in an identical manner to the control group in the first study. Post-operative analgesics and antibiotics were not administered to the mice in the two experiments.
(§3) Histological slides of the formalin-maintained samples were prepared and then stained with hematoxylin and eosin using standard procedures. Immunohistochemistry was performed using rabbit monoclonal antibodies against tissue CD31, VEGFR-2 and EPOR, and goat polyclonal IgG against VEGF (R&D Systems, Minneapolis Minn., USA), and CD68 (Dako, Glostrup, Denmark). The paraffin-embedded fat graft sections were incubated with the antibodies overnight at room temperature followed by incubation with appropriate secondary antibodies [Li et al. (2005) J Cell Biochem 95: 559-570]. Upon completion of the incubations, the specimens were counterstained with hematoxylin. Mouse IgG was used as a negative control. […]

[3] = test system: human fat grafts; experiment: Fat graft weight and volume 15 weeks after transplantation; assay type: in vivo, CD-1 nude mice; settings: VEGF 200 ng/100 μl PBS every three days for 18 days; week 15; second experiment
Description: Fat was harvested from the thigh of a person by suction-assisted lipectomy under […] anesthesia. The fat was aspirated under local anesthesia using a 14-gauge blunt cannula, and then processed under sterile conditions for subsequent grafting into nude mice within two hours of its collection according to previously published protocols [Ullmann et al. (2005) Dermatol Surg 31:1304-7; Kurita et al. (2008) Plast Reconstr Surg 121:1033-1041].
as §1, §2

[4] = test system: human fat grafts; experiment: Extent of apoptosis in fat grafts (TUNEL assay); assay type: in vivo, CD-1 nude mice; settings: VEGF-treated (200 ng/100 μl PBS) vs PBS-treated fat grafts; week 15
Protocol: The extent of apoptosis in all fat grafts was assessed by the terminal deoxyuridine triphosphate nick end labeling (TUNEL) assay using a commercial kit (ApopTag® Plus Fluorescein Kit, CHEMICON, CA, USA), in accordance with the manufacturer's instructions. Duplicates were carried out for each sample and were processed by fluorescence-activated cell sorting (FACS, Becton Dickinson, N.J., USA). Data was analyzed using the Macintosh CELLQuest software program (Becton Dickinson).

[5] = test system: bFGF, IGF-1, PDGF-BB, VEGFR-2, EPOR, MMP-2, PKB, phosphoPKB, caspase 3, cytochrome c; experiment: Expression of angiogenic, survival and pro-apoptotic factors in fat grafts (Western blotting, immunohistochemistry); assay type: in vivo, CD-1 nude mice; settings: VEGF-treated vs PBS-treated fat grafts, Western blot; week 15
Protocol: as §3
The expression levels of the angiogenic factors, bFGF, IGF-1, PDGF-BB VEGFR-2, EPOR and MMP-2, the cell survival factor PKB and phosphorylated PKB, and the pro-apoptotic factors caspase 3 and cytochrome c were determined in homogenates of the harvested fats grafts by Western blotting. […] The resultant bands were quantified by densitometry.

[6] = test system: CD31-positive endothelial cells; experiment: Microvascular density (MVD, CD31) in fat grafts; assay type: in vivo, CD-1 nude mice
Protocol: Quantification of macrophage infiltration in the fat grafts was estimated by counting the number of CD68-positive cells in five fields per fat graft in all fat graft sections. Microvascular density (MVD) in fat grafts was determined in five regions of interest where the CD31 antibody signal was the most intense in each section in all of the fat graft sections. The number of macrophages and blood vessels in each region was counted under a light microscope at 400× magnification. The assessment in each fat graft was made by calculating the mean result in two different sections per fat graft and five different fields of view per section.
The paraffin-embedded fat graft sections were incubated overnight at room temperature with a monoclonal antibody against tissue CD31 (R&D Systems, Minneapolis Minn., USA) as previously described [Li et al. (2005) J Cell Biochem 95:559-570]. Upon completion of the incubation, the specimens were counterstained with hematoxylin. Mouse IgG was used as a negative control. The microvascular density (MVD) was determined in five regions of interest where the CD31 antibody signal was most intense. The number of blood vessels in each region was counted under a light microscope at […] magnification.

[7] = test system: human umbilical vein endothelial cells (HUVECs); experiment: In vitro tube formation of HUVECs on matrigel; assay type: cell-based
Protocol: The in vitro angiogenic potential of VEGF and EPO was measured by assessment of their ability to form tubes of endothelial cells on matrigel. To this end, human umbilical vein endothelial cells (HUVECs, LONZA, USA) were first cultured on fibronectin-coated 6-well plates in endothelial basal medium-2 (EBM-2, PromoCell, USA) until confluence and then the cells were treated with 0, 20 or 100 IU/ml EPO for 48 hours before their use in the assay (FIG. 7A). In a second experiment (FIG. 7B), HUVECs were exposed to 0, 100 IU/ml EPO or 200 ng/ml VEGF for 48 hours in EBM-2 with or without 0.25 mg/ml bevacizumab (Avastin®, Genentech, San Francisco, Calif., USA), a humanized monoclonal antibody that antagonizes the actions of VEGF. After 48 hours, the untreated HUVECs, the VEGF- and EPO-treated HUVECs, and the VEGF+bevacizumab- and EPO+bevacizumab-treated HUVECs were detached gently by 0.5% trypsin/EDTA, and then suspended in EBM-2. At the same time, frozen matrigel (Sigma Aldrich, St Louis Mo., USA) was thawed, and spread onto 96-well plates ([…]) at room temperature for 30 minutes to allow solidification. […] After 24 hours, the non-integrated cells were removed by washing and tube formation on the matrigel was assessed under a light microscope at 10× magnification. […]

[8] = test system: human umbilical vein endothelial cells (HUVECs); experiment: HUVEC proliferation ([3H]-thymidine incorporation); assay type: cell-based; settings: inhibitor exposure for 3 hours, without EPO
Protocol: To investigate EPO-induced angiogenesis through mechanisms involving pro-angiogenic factors, the present inventor measured the proliferation of EPO-treated HUVECs in the presence of various pro-angiogenic factor inhibitors. To this end, HUVECs (2×10^5 cells/well) were cultured on fibronectin-coated 12-well plates in EBM-2. The cultured HUVECs were treated with or without 100 IU/ml EPO for 48 hours, and then exposed for 3 hours to (a) 0.25 mg/ml bevacizumab, (b) 100 nM of PD173074; an inhibitor of bFGF (Calbiochem, San Diego, Calif.), (c) 20 μM of tyrphostin AG 1296; a selective inhibitor of PDGF (Sigma), (d) a combination of bevacizumab, PD173074 and tyrphostin, and to (e) 100 nM wortmannin; a phosphatidylinositol 3-kinaz (PI 3-K) inhibitor (Sigma). Upon the completion of the experiment, the cells were washed with PBS and then incubated with 1 μCi/ml medium [^3H]-thymidine (NEN, Boston, Mass., USA) for 5 h at 37° C. Thereafter, 0.5 ml cold 10% Trichloroacetic acid (TCA) was added into each well for another 30 min at 4° C. To extract the ^3H-thymidine labeled DNA, 0.5 ml 1N NaOH was added to each well for 10 min at room temperature, and then 0.5 ml 1N HCl was added and mixed well. Samples of mixture solution (0.5 ml) was taken from each well and added to scintillation vials for the measurement of [^3H]-thymidine incorporation to DNA (cpm/mg protein). Duplicate cell counts were averaged for 3 experiments. Data were expressed as the percentage of control.

vascular endothelial growth factor [VEGF]
VEGF content in fat grafts [1]: higher than, but not statistically different from
Cyst/Vacuoles [2]: 3.3 ± 1.0
Fibrosis [2]: 2.9 ± 0.7
Inflammation [2]: 4.0 ± 1.2
Integration [2]: 3.2 ± 0.9
fat graft Volume [3]: 0.36 ± 0.2 mL
fat graft Weight [3]: 0.35 ± 0.2 g
extent of apoptosis (TUNEL) [4]: greater than that in the PBS-treated fat grafts
expression levels of caspase 3 and cytochrome c [5]: no statistical differences
microvascular density (MVD) ([6]; VEGF-treated (200 ng/100 μl PBS) vs PBS-treated fat grafts, week 15): higher than, but not statistically different from
vessel morphology in fat grafts ([6]; VEGF-treated fat grafts (data not shown)): unorganized vessel formation and perivascular hemorrhage
HUVEC tube formation ([7]; 200 ng/ml VEGF, without bevacizumab (FIG. 7B)): significantly enhanced

bevacizumab [reference compound]
HUVEC proliferation [8]: reduced HUVEC proliferation significantly
HUVEC tube formation ([7]; 0.25 mg/ml bevacizumab in VEGF-treated HUVECs): substantially reduced

CCN(CC)CCCCNc1ncc2cc(-c3cc(OC)cc(OC)c3)c(NC(=O)NC(C)(C)C)nc2n1 [PD173074]
HUVEC proliferation [8]: reduced HUVEC proliferation significantly

tyrphostin AG 1296
HUVEC proliferation [8]: reduced HUVEC proliferation significantly
